US10519114B2, “Peptidomimetics and methods of using the same” (The Regents of the University of Michigan, priority 2016, dated 2019)

Assays:
[1] = molecular target: T1, rat μ (C6-MOR) opioid receptor (Rattus norvegicus, UniProt P33535); experiment: Radioligand binding assay, [3H]diprenorphine displacement, MOR; details: displacement of 0.2 nM [3H]diprenorphine, C6-MOR membranes; mean ± standard error
T1 construct: expressed in transfected cells
Method: (§1) In Vitro Pharmacology-Cell Lines and Membrane Preparations. All tissue culture reagents were purchased from Gibco Life Sciences (Grand Island, N.Y., U.S.). C6-rat glioma cells stably transfected with a rat μ (C6-MOR) or rat δ (C6-DOR) opioid receptor20 and Chinese hamster ovary (CHO) cells stably expressing a human K (CHO-KOR) opioid receptor21 were used for all in vitro assays. Cells were grown to confluence at 37° C. in 5% CO2 in Dulbecco's modified Eagle medium containing 10% fetal bovine serum and 5% penicillin/streptomycin. Membranes were prepared by washing confluent cells three times with ice cold phosphate buffered saline (0.9% NaCl, 0.61 mM Na2HPO4, 0.38 mM KH2PO4, pH 7.4). Cells were detached from the plates by incubation in warm harvesting buffer (20 mM HEPES, 150 mM NaCl, 0.68 mM EDTA, pH 7.4) and pelleted by centrifugation at 200 g for 3 min. The cell pellet was suspended in ice-cold 50 mM Tris-HCl buffer, pH 7.4, and homogenized with a Tissue Tearor (Biospec Products, Inc., Bartlesville, Okla., U.S.) for 20 s at setting 4. The homogenate was centrifuged at 20 000 g for 20 min at 4° C., and the pellet was rehomogenized in 50 mM Tris-HCl with a Tissue Tearor for 10 s at setting 2, followed by recentrifugation. The final pellet was resuspended in 50 mM Tris-HCl and frozen in aliquots at […]. Protein concentration was determined via Bradford assay using bovine serum albumin as the standard.
(§2) Radioligand Binding Assays. Radioactive compounds were purchased from Perkin-Elmer (Waltham, Mass., U.S.). Opioid ligand binding assays were performed using competitive displacement of 0.2 nM [3H]diprenorphine (250 μCi, 1.85 TBq/mmol) by the test compound from membrane preparations containing opioid receptors. The assay mixture, containing membrane suspension (20 μg protein/tube) in 50 mM Tris-HCl buffer (pH 7.4), [3H]diprenorphine, and various concentrations of test peptide, was incubated at room temperature for 1 h to allow binding to reach equilibrium. The samples were rapidly filtered through Whatman GF/C filters using a Brandel harvester (Brandel, Gaithersburg, Md., U.S.) and washed three times with 50 mM Tris-HCl buffer. The radioactivity retained on dried filters was determined by liquid scintillation counting after saturation with EcoLume liquid scintillation cocktail in a Wallac 1450 MicroBeta (Perkin-Elmer, Waltham, Mass., U.S.). Nonspecific binding was determined using 10 μM naloxone. Inhibitory constant (Ki) values were calculated using nonlinear regression analysis to fit a logistic equation to the competition data using GraphPad Prism, version 5.01, for Windows (GraphPad Software Inc., La Jolla, Calif.). The results presented are the mean±standard error from at least three separate assays performed in duplicate.

[2] = molecular target: T2, rat δ (C6-DOR) opioid receptor (Rattus norvegicus, UniProt P33533); experiment: Radioligand binding assay, [3H]diprenorphine displacement, DOR; details: displacement of 0.2 nM [3H]diprenorphine, C6-DOR membranes; mean ± standard error
T2 construct: expressed in transfected cells
Method: as §1, §2

[3] = molecular target: T3, human κ (CHO-KOR) opioid receptor (Homo sapiens, UniProt P41145); experiment: Radioligand binding assay, [3H]diprenorphine displacement, KOR; details: displacement of 0.2 nM [3H]diprenorphine, CHO-KOR membranes; mean ± standard error
T3 construct: expressed in transfected cells
Method: as §1, §2

[4] = molecular target: T1, rat μ (C6-MOR) opioid receptor; experiment: Stimulation of [35S]GTPγS binding, MOR; format: biochemical; details: for EC50: [35S]GTPγS binding, C6-MOR membranes, mean ± standard error; for Emax: [35S]GTPγS maximal stimulation compared with 10 μM standard DAMGO
Method: as §1
(§3) Stimulation of [^35S]GTPyS Binding. Agonist stimulation of [35S]guanosine 5′-O-[γ-thio]triphosphate ([^35S]GTPγS, 1250 Ci, 46.2 TBq/mmol) binding was measured as described previously Briefly, membranes (10-20 μg of protein/tube) were incubated 1 h at room temperature in GTPyS buffer (50 mM Tris-HCl, 100 mM NaCl, 5 mM MgCl2, pH 7.4) containing 0.1 nM [^35S]GTPγS, 30 μM guanosine diphosphate (GDP), and varying concentrations of test peptides. Peptide stimulation of [^35S]GTPyS was compared with 10 μM standard compounds [D-Ala^2,N-MePhe^4,Gly-ol]encephalin (DAMGO) at MOR, D-Pen^2,5-enkephalin (DPDPE) at DOR, or […] at KOR. The reaction was terminated by rapidly filtering through GF/C filters and washing 10 times with GTPyS buffer, and retained radioactivity was measured as described above. The results presented are the mean±standard error from at least three separate assays performed in duplicate; maximal stimulation was determined using nonlinear regression analysis with GraphPad Prism (GraphPad Software Inc., La Jolla, Calif.).

[5] = molecular target: T2, rat δ (C6-DOR) opioid receptor; experiment: Stimulation of [35S]GTPγS binding, DOR; format: biochemical; details: for EC50 / EC50 (nm) DOR: [35S]GTPγS binding, C6-DOR membranes, mean ± standard error; for Emax / % stimulation DOR: [35S]GTPγS maximal stimulation compared with 10 μM standard DPDPE
Method: as §1, §3

[6] = molecular target: T3, human κ (CHO-KOR) opioid receptor; experiment: Stimulation of [35S]GTPγS binding, KOR; format: biochemical
Method: as §1, §3

[7] = [35S]GTPγS binding, CHO-KOR membranes, mean ± standard error
[8] = [35S]GTPγS maximal stimulation compared with 10 μM standard U-69,593

T3 sequence (P41145 whole entry): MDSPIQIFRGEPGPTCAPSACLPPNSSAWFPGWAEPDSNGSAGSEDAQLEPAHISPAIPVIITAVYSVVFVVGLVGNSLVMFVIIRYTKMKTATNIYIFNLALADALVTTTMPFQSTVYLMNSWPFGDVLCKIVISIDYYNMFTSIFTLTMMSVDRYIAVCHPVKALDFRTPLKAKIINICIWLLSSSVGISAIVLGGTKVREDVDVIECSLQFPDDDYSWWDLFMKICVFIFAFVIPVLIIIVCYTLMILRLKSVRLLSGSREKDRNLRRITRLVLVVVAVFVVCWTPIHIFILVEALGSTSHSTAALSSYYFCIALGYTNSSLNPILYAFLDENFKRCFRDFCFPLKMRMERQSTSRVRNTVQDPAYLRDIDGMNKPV
T1 sequence (P33535 whole entry): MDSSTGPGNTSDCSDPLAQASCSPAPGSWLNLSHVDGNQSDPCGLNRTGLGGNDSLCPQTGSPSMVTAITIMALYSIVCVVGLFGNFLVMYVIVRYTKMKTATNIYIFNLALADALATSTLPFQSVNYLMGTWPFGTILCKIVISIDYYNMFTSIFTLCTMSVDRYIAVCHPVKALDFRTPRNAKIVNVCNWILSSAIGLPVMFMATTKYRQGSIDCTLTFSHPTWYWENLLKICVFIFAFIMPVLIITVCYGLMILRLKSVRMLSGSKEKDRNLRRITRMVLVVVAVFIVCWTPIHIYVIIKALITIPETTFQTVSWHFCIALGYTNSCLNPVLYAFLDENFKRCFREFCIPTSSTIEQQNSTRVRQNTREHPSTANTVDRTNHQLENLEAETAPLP
T2 sequence (P33533 whole entry): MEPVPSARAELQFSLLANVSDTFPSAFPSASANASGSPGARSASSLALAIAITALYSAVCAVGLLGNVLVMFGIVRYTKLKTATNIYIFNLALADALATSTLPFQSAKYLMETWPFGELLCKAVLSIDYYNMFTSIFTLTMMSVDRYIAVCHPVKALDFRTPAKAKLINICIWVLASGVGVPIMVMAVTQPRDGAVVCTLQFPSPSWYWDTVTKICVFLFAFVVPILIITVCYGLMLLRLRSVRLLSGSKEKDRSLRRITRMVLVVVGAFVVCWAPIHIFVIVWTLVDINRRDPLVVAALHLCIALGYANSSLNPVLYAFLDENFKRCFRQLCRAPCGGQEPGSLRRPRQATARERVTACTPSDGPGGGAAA

| Compound | Ki [1] [nM] | Ki [2] [nM] | Ki [3] [nM] | EC50 [4] [nM] | Emax [4] [%] | EC50 [5] [nM] | Emax [5] [%] | EC50 [6, 7] [nM] | Emax [6, 8] [%] | EC50 (nm) DOR [5] | % stimulation DOR [5] | EC50 (nm) KOR [6, 7] | % stimulation KOR [6, 8] |
| --- | --- | --- | --- | --- | --- | --- | --- | --- | --- | --- | --- | --- | --- |
| Cc1cc(O)cc(C)c1C[C@H](N)C(=O)N(C)[C@@H]1CCNc2ccc(Cc3ccccc3)cc21 [Compound 1001] | 0.9 ± 0.3 | 15.7 ± 3.7 | 116 ± 30 | 3 ± 0.31 | 80.6 ± 4.7 | 410 ± 138 | 12.6 ± 5.5 | 488 ± 142 | 3.9 ± 0.9 | – | – | – | – |
| Cc1cc(O)cc(C)c1C[C@H](N)C(=O)N(C)[C@H]1CCNc2ccc(Cc3ccccc3)cc21 [Compound 1002] | 0.8 ± 0.04 | 8.5 ± 0.2 | 4.1 ± 0.4 | 0.463 ± 0.1 | 65.6 ± 4.4 | – | 2.2 ± 2.2 | 7.2 ± 0.4 | 8.3 ± 2.4 | – | – | – | – |
| Cc1cc(O)cc(C)c1C[C@H](N)C(=O)N[C@@H]1CCN(C)c2ccc(Cc3ccccc3)cc21 [Compound 1004] | 0.555 ± 0.242 | 7.3 ± 3.5 | 27.8 ± 0.7 | 4 ± 0.9 | 102 ± 4.6 | 486 | 4.3 ± 4.3 | 2220 ± 1020 | 44 ± 8.2 | – | – | – | – |
| Cc1cc(O)cc(C)c1C[C@H](N)C(=O)N[C@H]1CCN(C)c2ccc(Cc3ccccc3)cc21 [Compound 1005] | 71.4 ± 18.4 | 138 ± 29.8 | 632 ± 78 | 214 ± 41 | 72.2 ± 3.6 | – | 0 | – | 1.6 ± 1.4 | – | – | – | – |
| CCCN1CC[C@@H](NC(=O)[C@@H](N)Cc2c(C)cc(O)cc2C)c2cc(Cc3ccccc3)ccc21 [Compound 1006] | 0.34 ± 0.21 | 1.72 ± 0.61 | 71.7 ± 20 | 16.4 ± 8.18 | 83.1 ± 3.25 | 2330 ± 1030 | 39.3 ± 5.45 | 5010 ± 1020 | 38.2 ± 3.42 | – | – | – | – |
| Cc1ccc(Cc2ccc3c(c2)[C@H](NC(=O)[C@@H](N)Cc2c(C)cc(O)cc2C)CCN3)cc1 [Compound 1007] | 0.11 | 6.1 | 18 | – | 99 | – | 13 | – | 14 | – | – | – | – |
| Cc1ccc(Cc2ccc3c(c2)[C@@H](NC(=O)[C@@H](N)Cc2c(C)cc(O)cc2C)CCN3)cc1 [Compound 1008] | 11 | 582 | 50 | – | 55 | – | 3 | – | 0 | – | – | – | – |
| Cc1cc(O)cc(C)c1C[C@H](N)C(=O)N[C@@H]1CCNc2ccc(Cc3ccc(F)cc3)cc21 [Compound 1009] | 0.07 | 4 | 6.6 | – | 69 | – | 16 | – | 9 | – | – | – | – |
| CCCC(=O)N1CC[C@@H](NC(=O)[C@@H](N)Cc2c(C)cc(O)cc2C)c2cc(CC3Cc4ccccc4C3)ccc21 [Compound 1034] | 0.13 ± 0.02 | 0.38 ± 0.07 | 25.5 ± 0.85 | 4.08 ± 1.58 | 63.2 ± 12.6 | – | – | – | – | dns | dns | – | – |
| Cc1cc(O)cc(C)c1C[C@H](N)C(=O)N[C@@H]1CCNc2ccc(CC3Cc4cccc(O)c4C3)cc21 (stereo partly drawn) [Compound 1036, (2S)-2-amino-N-((4R)-6-((4-hydroxy-2,3-dihydro-1H-inden-2-yl)methyl)-1,2,3,4-tetrahydroquinolin-4-yl)-3-(4-hydroxy-2,6-dimethylphenyl)propanamide] | 0.18 ± 0.03 | 6.01 ± 1.31 | 20.6 ± 16.3 | 4.93 ± 1.15 | 69.1 ± 5.74 | – | – | – | – | dns | dns | – | – |
| Cc1cc(O)cc(C)c1C[C@H](N)C(=O)N[C@@H]1CCNc2ccc(CC3Cc4ccc(O)cc4C3)cc21 (stereo partly drawn) [Compound 1038] | 0.73 | 19.9 ± 4.12 | 38.5 | 11.9 ± 4.96 | 16.2 ± 3.43 | 261 | 10.5 | – | – | – | – | – | – |
| Cc1cc(O)cc(C)c1C[C@H](N)C(=O)N[C@@H]1CCNc2c(Cc3ccccc3)cccc21 [Compound 1039] | 57.7 | 246 | 977 | 988 | 17.9 | – | – | – | – | dns | dns | – | – |
| CC(=O)N1CC[C@@H](NC(=O)[C@@H](N)Cc2c(C)cc(O)cc2C)c2cc(Cc3ccccc3)cc(Cc3ccccc3)c21 [Compound 1042] | 0.35 | 0.35 | 12.1 | 14.7 | 75.1 | 14.2 | 30.1 | – | – | – | – | – | – |
| Cc1cc(O)cc(C)c1C[C@H](N)C(=O)N[C@@H]1CCNc2ccc(CC3Cc4ccccc4C3C)cc21 (stereo partly drawn) [Compound 1043] | 0.43 ± 0.18 | 12 ± 1.17 | 35.7 ± 23.6 | 3.21 ± 1.25 | 92.4 ± 8.06 | – | – | – | – | dns | dns | – | – |
| COC(=O)N1CC[C@@H](NC(=O)[C@@H](N)Cc2c(C)cc(O)cc2C)c2cc(CC3Cc4ccccc4C3)ccc21 [Compound 1044] | 0.09 ± 0.02 | 0.26 ± 0.05 | 10.4 | 0.4 | 82.5 | – | – | – | – | dns | dns | – | – |
| COc1cc2c(cc1Cc1ccccc1)[C@H](NC(=O)[C@@H](N)Cc1c(C)cc(O)cc1C)CCN2 [Compound 1045] | 0.26 ± 0.09 | 2.84 ± 0.78 | 8.51 | 8.03 ± 3.15 | 98.4 ± 2.54 | 135 | 32.5 | – | – | – | – | – | – |
| Cc1cc(O)cc(C)c1C[C@H](N)C(=O)N[C@@H]1CCNc2cc(O)c(Cc3ccccc3)cc21 [Compound 1046] | 0.33 ± 0.14 | 2.74 ± 0.05 | 15.1 | 9.86 ± 3.79 | 94.7 ± 4.19 | 237 | 20.3 | – | – | – | – | – | – |
| Cc1cc(O)cc(C)c1C[C@H](N)C(=O)N[C@@H]1CCNc2ccc(Cn3n[n+]([O-])c4ccc(Cl)cc43)cc21 [Compound 1047] | 0.35 ± 0.05 | 3.54 ± 0.83 | 22.5 ± 8.83 | 3.45 ± 0.67 | 81.6 ± 1.48 | – | – | – | – | dns | dns | – | – |
| CCCc1cc(Br)cc2c1NCC[C@H]2NC(=O)[C@@H](N)Cc1c(C)cc(O)cc1C [Compound 1058] | 21.7 ± 8.06 | 45.9 ± 22.6 | 208 ± 16 | 859 | 12.6 | – | – | – | – | – | – | dns | dns |
| Cc1cc(O)cc(C)c1C[C@H](N)C(=O)N[C@@H]1CCNc2c(C(=O)Nc3ccccc3)cc(Cc3ccccc3)cc21 [Compound 1103] | 0.36 | 2.17 | 29.4 | 27.3 | 62.7 | – | – | – | – | dns | dns | – | – |
| Cc1cc(O)cc(C)c1C[C@H](N)C(=O)N[C@@H]1CCCc2ccc(Oc3ccccc3)cc21 [Compound 1118] | 0.33 ± 0.09 | 13 ± 1.01 | 38.5 ± 5.39 | 43 ± 14 | 41.9 ± 8.97 | – | 1.65 ± 1.65 | – | – | – | – | – | – |
